Experiments:
[1] = biological target: T1, CEP128_C915 (Homo sapiens, UniProt Q6ZU80); experiment: IA-DTB cysteine engagement; type: binding; conditions: 22Rv1 cells, 20 μM probe, 1 h, relative to DMSO
T1 construct: endogenous in cells; host or cells: 22Rv1
T1 sequence (Q6ZU80 1-1094): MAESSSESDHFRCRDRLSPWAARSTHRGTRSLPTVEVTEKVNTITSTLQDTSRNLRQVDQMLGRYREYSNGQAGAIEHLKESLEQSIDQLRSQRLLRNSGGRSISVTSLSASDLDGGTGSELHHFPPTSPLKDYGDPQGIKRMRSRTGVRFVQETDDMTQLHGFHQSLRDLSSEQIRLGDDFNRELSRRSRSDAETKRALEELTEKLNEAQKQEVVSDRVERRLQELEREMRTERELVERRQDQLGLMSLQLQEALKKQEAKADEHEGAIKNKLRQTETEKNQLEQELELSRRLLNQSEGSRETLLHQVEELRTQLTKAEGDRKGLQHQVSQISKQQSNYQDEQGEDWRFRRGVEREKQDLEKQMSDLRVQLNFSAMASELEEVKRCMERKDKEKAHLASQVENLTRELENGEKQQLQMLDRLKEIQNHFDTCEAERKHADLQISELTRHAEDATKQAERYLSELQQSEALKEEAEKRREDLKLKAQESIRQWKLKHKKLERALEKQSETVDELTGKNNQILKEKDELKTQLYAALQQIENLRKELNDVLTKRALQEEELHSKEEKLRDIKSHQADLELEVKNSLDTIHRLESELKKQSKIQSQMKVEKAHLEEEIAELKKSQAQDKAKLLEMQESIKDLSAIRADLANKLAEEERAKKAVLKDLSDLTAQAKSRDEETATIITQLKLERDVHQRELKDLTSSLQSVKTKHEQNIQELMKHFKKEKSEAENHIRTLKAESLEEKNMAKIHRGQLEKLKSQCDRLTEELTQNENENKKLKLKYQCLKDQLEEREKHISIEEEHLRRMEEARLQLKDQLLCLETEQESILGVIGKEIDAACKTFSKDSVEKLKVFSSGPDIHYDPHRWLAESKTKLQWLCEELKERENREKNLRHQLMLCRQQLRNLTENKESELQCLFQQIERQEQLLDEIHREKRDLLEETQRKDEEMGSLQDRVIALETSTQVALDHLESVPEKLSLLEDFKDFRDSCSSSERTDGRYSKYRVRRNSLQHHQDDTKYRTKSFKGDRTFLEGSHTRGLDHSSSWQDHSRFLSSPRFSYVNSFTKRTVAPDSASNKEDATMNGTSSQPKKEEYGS
Method in brief: (§1)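 Cells were treated in situ with electrophilic probes, then lysed, and the lysates (2 mg/mL protein) were labeled with IA-DTB for 1 h at ambient temperature. After reduction, alkylation and trypsin digestion, labeled peptides were streptavidin-enriched, TMT-labeled and fractionated. Engagement ratios are probe vs DMSO reporter intensities, averaged across replicates.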

[2] = biological target: T2, DCAF1_C1113 (Homo sapiens, UniProt Q9Y4B6); experiment: IA-DTB cysteine engagement; type: binding; conditions: 22Rv1 cells, 20 μM probe, 1 h, relative to DMSO
T2 construct: endogenous in cells; host or cells: 22Rv1
Method in brief: as §1

T2 sequence (Q9Y4B6 whole entry): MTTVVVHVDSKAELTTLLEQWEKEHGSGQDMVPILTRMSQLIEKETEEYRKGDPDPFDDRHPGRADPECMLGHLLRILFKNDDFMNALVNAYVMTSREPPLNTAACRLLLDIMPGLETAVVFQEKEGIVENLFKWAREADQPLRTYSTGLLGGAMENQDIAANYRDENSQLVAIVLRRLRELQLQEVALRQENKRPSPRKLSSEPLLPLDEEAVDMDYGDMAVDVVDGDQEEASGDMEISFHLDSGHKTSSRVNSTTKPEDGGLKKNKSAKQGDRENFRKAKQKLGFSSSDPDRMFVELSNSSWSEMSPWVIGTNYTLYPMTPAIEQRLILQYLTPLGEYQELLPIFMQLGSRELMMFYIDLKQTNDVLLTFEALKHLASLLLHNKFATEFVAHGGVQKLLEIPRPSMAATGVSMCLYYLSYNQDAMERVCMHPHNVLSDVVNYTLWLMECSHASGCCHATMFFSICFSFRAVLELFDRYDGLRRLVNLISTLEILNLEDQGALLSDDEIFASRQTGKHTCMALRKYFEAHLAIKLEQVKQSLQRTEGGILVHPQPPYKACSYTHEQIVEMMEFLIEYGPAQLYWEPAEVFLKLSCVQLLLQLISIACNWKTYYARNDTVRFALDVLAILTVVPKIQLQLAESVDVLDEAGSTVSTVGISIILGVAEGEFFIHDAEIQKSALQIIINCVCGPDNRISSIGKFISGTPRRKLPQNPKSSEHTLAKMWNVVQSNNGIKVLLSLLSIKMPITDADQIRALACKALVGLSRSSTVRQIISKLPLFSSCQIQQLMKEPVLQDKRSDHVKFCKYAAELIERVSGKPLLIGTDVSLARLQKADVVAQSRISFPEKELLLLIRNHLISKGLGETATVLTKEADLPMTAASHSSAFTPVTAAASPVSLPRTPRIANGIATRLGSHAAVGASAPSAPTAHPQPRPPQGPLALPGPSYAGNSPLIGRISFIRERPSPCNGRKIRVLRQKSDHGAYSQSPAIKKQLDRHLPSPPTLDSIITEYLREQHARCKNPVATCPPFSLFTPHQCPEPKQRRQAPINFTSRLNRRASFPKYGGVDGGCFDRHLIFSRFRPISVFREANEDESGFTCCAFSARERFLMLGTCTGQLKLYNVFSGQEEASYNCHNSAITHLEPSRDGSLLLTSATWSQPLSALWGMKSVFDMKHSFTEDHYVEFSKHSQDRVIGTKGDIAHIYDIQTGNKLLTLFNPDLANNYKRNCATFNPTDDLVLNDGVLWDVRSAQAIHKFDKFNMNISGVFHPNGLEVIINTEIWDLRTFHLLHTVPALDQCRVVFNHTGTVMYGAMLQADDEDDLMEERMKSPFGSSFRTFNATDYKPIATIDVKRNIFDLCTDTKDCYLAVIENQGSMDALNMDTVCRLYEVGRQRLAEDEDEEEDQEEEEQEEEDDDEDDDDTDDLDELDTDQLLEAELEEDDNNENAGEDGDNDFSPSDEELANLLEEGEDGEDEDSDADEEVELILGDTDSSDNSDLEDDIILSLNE

| % engagement CEP128_C915 [1] [%] | % engagement DCAF1_C1113 [2] [%] | Structure (SMILES) |
| --- | --- | --- |
| 25 | 26.5 | C=CC(=O)N1C[C@H](c2ccc(Br)cc2)[C@H]1C(=O)Nc1cccc2cccnc12 [MY-3B, (2S,3S)-1-acryloyl-3-(4-bromophenyl)-N-(quinolin-8-yl)azetidine-2-carboxamide] |
| 67.5 | 68.5 | C=CC(=O)N1C[C@H](c2ccc(Br)cc2)[C@@H]1C(=O)Nc1cccc2cccnc12 [MY-1B, (2R,3S)-1-acryloyl-3-(4-bromophenyl)-N-(quinolin-8-yl)azetidine-2-carboxamide] |
| 7 | −1.5 | C=CC(=O)N1C[C@H](c2ccc(Br)cc2)[C@H]1C(=O)Nc1cccc2cccnc12 [MY-3A, (2S,3S)-1-acryloyl-3-(4-bromophenyl)-N-(quinolin-8-yl)azetidine-2-carboxamide] |
| −13 | −18 | C=CC(=O)N1C[C@@H](c2ccc(Br)cc2)[C@H]1C(=O)Nc1cccc2cccnc12 [MY-1A, (2S,3R)-1-acryloyl-3-(4-bromophenyl)-N-(quinolin-8-yl)azetidine-2-carboxamide] |

— patent publication US20250034216A1, “STEREOSELECTIVE COVALENT LIGANDS FOR ONCOGENIC AND IMMUNOLOGICAL PROTEINS” (The Scripps Research Institute, priority 2021, published 2025)
